Assay results published in patent US12351836B2, “Microhomology mediated repair of microduplication gene mutations” (UNIVERSITY OF MASSACHUSETTS, priority 2018, dated 2025).

Biological target: PARP-1 (Homo sapiens, UniProt P09874)
Test: PARP-1 inhibition by rucaparib: MMEJ-based repair at the HPS1 locus in HPS1 B-LCL cells treated with SpyCas9 RNP
Type: cell-based
Description: To investigate whether nuclease-mediated collapse of a microduplication occurs via the MMEJ pathway, a DNA repair factor (PARP-1) that regulates DSB flux through this pathway was inhibited. PARP-1 influences the repair of a DSB through resection-dependent DNA repair pathways, such as MMEJ^3,16, which are in competition with the non-homologous end joining pathway (NHEJ) for DSB repair^17. Inhibition of the catalytic activity of PARP-1 by rucaparib reduces DSB flux through the MMEJ pathway, resulting in a decrease in microhomology-based deletion products in the resulting repair events^18. See, FIG. 18A. Patient-derived HPS1 B-LCL cells were treated with 10 µM or 20 μM rucaparib before and after treatment with SpyCas9 RNP to suppress MMEJ-mediated repair of DSBs. See, FIG. 12A. […] See, FIG. 12B. […] See, FIG. 12B-12D. […] See, FIG. 18.
For the PARP-1 inhibition experiments, 300,000 HPS1 patient-derived B-LCL cells were treated with 10 μM or 20 μM rucaparib camsylate (Sigma-Aldrich PZ0036) in standard growth medium for 24 h. Treated cells were electroporated with SpyCas9 RNPs following previously described protocol. Following another 24 h incubation in rucaparib-containing medium, cells were resuspended in PARP-1 inhibitor-free medium and harvested for analysis after 7 days.
The construction of the UMI-based library used a linear amplification step to incorporate UMIs within the amplicons from the target locus^15. HPS1 B-LCL cells and HEK293 Ts were harvested following nuclease treatment for genomic DNA extraction using the GenElute Mammalian Genomic DNA Miniprep Kit (Sigma GIN350).
The analysis of the UMI-tagged deep sequencing reads was adapted from a previous protocol^15. Initially, BWA (version 0.7.5) and SAMtools (version 0.1.19) were used to align each group of filtered merged-read pairs to a corresponding reference sequence, ignoring the unique molecular barcodes. Next, a custom Python and PySAM script was used to process mapped reads into counts of UMI-labelled reads for each target. The mapped reads were filtered by requiring a mapping value (MAPQ) larger than 30. […]

Chain of PARP-1 (P09874 whole entry): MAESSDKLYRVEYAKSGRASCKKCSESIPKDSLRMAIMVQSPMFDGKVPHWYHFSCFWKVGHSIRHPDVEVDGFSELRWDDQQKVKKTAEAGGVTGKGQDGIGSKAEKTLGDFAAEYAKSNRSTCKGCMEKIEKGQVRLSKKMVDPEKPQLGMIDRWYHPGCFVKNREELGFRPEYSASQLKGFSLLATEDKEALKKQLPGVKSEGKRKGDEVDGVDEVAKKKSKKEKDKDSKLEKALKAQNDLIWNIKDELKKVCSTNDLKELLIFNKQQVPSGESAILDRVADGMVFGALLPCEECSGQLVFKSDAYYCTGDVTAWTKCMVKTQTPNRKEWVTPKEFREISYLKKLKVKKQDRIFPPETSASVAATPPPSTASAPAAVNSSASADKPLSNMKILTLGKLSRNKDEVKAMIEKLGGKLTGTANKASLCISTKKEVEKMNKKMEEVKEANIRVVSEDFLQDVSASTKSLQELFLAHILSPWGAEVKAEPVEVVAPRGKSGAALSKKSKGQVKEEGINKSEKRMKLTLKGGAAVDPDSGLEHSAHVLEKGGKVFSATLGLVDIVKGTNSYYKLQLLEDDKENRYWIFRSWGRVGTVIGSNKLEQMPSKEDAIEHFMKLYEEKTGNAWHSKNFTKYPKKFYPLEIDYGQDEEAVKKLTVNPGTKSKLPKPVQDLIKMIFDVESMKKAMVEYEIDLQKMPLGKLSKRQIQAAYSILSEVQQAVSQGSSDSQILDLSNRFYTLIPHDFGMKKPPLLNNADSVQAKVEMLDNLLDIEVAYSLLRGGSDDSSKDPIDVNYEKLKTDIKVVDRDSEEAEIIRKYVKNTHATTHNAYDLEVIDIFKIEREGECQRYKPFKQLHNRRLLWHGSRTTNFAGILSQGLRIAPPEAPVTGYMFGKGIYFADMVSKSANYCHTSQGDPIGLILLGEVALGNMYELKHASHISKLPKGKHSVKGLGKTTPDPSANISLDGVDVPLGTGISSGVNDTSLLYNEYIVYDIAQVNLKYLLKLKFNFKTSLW

16-bp deletion product (10 μM rucaparib 24 h before and after SpyCas9 RNP): around 15%
16-bp deletion product (20 μM rucaparib 24 h before and after SpyCas9 RNP): ~6%
editing rates at the HPS1 locus upon rucaparib treatment (10 or 20 μM rucaparib): overall reduction in editing rates
Compound: CNCc1ccc(-c2[nH]c3cc(F)cc4c3c2CCNC4=O)cc1 [rucaparib, rucaparib camsylate]
